Data published in US20230114241A1, “METHODS OF TREATING EPILEPSY USING THE SAME” (Trevena, Inc., priority 2019, published 2023).

Molecular target: human sphingosine-1-phosphate receptor 1 (S1P1) (Homo sapiens, UniProt P21453)
Test: Inhibition of cAMP production (HTRF cAMP HiRange), S1P1 CHO-K1 cells
Assay type: cell-based
Settings: inhibition of cAMP production, S1P1; read-out: hS1P1 CAMP pEC50 (converted)
Protocol: Stable clonal Chinese hamster ovary K1 (CHO-K1) cells co-expressing EA-β-arrestin2 and the human sphingosine-1-phosphate receptor 1 (NM_001400, S1P1) with a C-terminal Prolink™ tag were purchased from DiscoverX corporation (Cat #: 93-0207C2).
Cell lines were cultured in AssayComplete™ Media 6 (DiscoverX Corporation, Cat #: 920018GF2) at 37° C. and 5% CO2 in a humidified CO2 and temperature-controlled incubator. To begin assay plating, cells were washed with Dulbecco's phosphate buffered saline (CellGro, Cat #: 21-031-CV) and lifted from the culturing flask by incubation (37° C., 5 min) with CellStripper (Cellgro, Cat #: 25-056-CI). […] Plated cells were incubated overnight at 37° C. and 5% CO2 in a humidified CO2 and temperature-controlled incubator.
Agonist-promoted G-protein responses were determined by measuring changes in intracellular cAMP using the HTRF® cAMP HiRange kit (CisBio, Cat #: 62AM6PEJ) based on time-resolved fluorescence resonance energy transfer (TR-FRET) technology. […] Following a 30-minute incubation at 37° C. and 5% CO2 in a humidified CO2 and temperature-controlled incubator, the components of the cAMP HiRange kit were added as per the manufacturer's instructions. After an hour incubation at room temperature, plates were analyzed by a BMG PheraStar microplate reader.
These values are normalized to fingolimod, a known agonist of the sphingosine-1-phosphate 1 receptor.

Sequence of human sphingosine-1-phosphate receptor 1 (S1P1) (P21453 whole entry): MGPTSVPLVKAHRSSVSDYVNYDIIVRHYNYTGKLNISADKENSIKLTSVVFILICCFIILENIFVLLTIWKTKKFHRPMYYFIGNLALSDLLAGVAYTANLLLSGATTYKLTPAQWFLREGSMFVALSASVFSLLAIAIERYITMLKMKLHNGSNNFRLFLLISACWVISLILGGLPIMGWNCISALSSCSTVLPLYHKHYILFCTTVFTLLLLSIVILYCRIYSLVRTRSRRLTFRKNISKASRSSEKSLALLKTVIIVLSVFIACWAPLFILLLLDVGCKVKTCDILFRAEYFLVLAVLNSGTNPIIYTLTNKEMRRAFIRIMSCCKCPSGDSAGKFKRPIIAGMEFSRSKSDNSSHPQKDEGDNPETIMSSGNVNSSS

Compound	EC50 [nM]
CC(C)(CO)n1nnc2cc(-c3noc(-c4cnccc4C(F)(F)F)n3)ccc21 [Compound 644, 2-methyl-2-(5-(5-(4-(trifluoro-methyl)pyridin-3-yl)-1,2,4-oxadiazol-3-yl)-1H-benzo[d][1,2,3]triazol-1-yl)propan-1-ol]	> 316
CC(C)Cn1nnc2cc(-c3nc4c(Br)cccc4o3)ccc21 [Compound 461, 4-bromo-2-(1-isobutyl-1H-benzo[d][1,2,3]triazol-5-yl)benzo[d]oxazole]	> 316
COc1cccnc1-c1noc(-c2ccc3c(c2)nnn3C(C)C)n1 [Compound 627, 5-(1-isopropyl-1H-benzo[d][1,2,3]triazol-5-yl)-3-(3-methoxypyridin-2-yl)-1,2,4-oxadiazole]	> 316
CC(C)n1ccc2cc(-c3nc(-c4ccccc4F)cs3)ccc21 [Compound 403, 4-(2-fluorophenyl)-2-(1-isopropylindol-5-yl)thiazole]	> 316
CC(C)n1nnc2cc(-c3nc(-c4ccccc4N)co3)ccc21 [Compound 438, 2-{2-[1-(propan-2-yl)-1H-1,2,3-benzotriazol-5-yl]-1,3-oxazol-4-yl}aniline]	< 316
COc1cccc2oc(-c3ccc4c(c3)nnn4C(C)C)nc12 [Compound 424, 2-(1-isopropyl-1H-benzo[d][1,2,3]triazol-5-yl)-4-methoxy-benzo[d]oxazole]	< 316
COc1ccc2nc(-c3ccc4c(c3)nnn4CC(C)C)oc2c1 [Compound 452, 2-(1-isobutyl-1H-benzo[d][1,2,3]triazol-5-yl)-6-methoxy-benzo[d]oxazole]	> 316

Same assay, conditions: inhibition of cAMP production; potency; read-out: hS1P1 CAMP pEC50 (converted)

Compound	EC50 [nM]
COc1cccc(-c2nc(-c3ccc4c(c3)nnn4C3CCCC3)no2)c1 [Compound 130, 3-(1-cyclopentyl-1H-benzo[d][1,2,3]triazol-5-yl)-5-(3-methoxy-phenyl)-1,2,4-oxadiazole]	> 316
CC(C)Oc1ccc(-c2nc(-c3ccc4c(c3)nnn4C3CCCC3)no2)cc1 [Compound 121, 3-(1-cyclopentyl-1H-benzo[d][1,2,3]triazol-5-yl)-5-(4-isopropoxyphenyl)-1,2,4-oxadiazole]	> 316
CC(C)Nc1ccc(-c2nnc(-c3ccc4[nH]ncc4c3)o2)cc1C#N [Compound 351, 5-[5-(1H-indazol-5-yl)-1,3,4-oxadiazol-2-yl]-2-[(propan-2-yl)amino]benzonitrile]	< 316
FC(F)(F)c1cc(-c2noc(-c3ccc4c(c3)nnn4C3CCCC3)n2)ccc1OCc1cccnc1 [Compound 4, 1-cyclopentyl-5-{3-[4-(pyridin-3-ylmethoxy)-3-(trifluoromethyl)phenyl]-1,2,4-oxadiazol-5-yl}-1H-1,2,3-benzotriazole]	> 316
CC(C)n1nnc2cc(-c3nc(-c4ccccc4)no3)ccc21 [Compound 79, 5-(3-phenyl-1,2,4-oxadiazol-5-yl)-1-(propan-2-yl)-1H-1,2,3-benzotriazole]	< 316
COc1ccc(-c2cnc(-c3ccc4c(c3)nnn4C(C)C)s2)cc1 [Compound 109, 2-(1-isopropyl-1H-benzo[d][1,2,3]triazol-5-yl)-5-(4-methoxy-phenyl)thiazole]	> 316
CCC1(CC)CC(=O)c2cc(-c3nc(-c4sccc4C)no3)ccc2O1 [Compound 265, 2,2-diethyl-6-(3-(3-methylthiophen-2-yl)-1,2,4-oxadiazol-5-yl)chroman-4-one]	< 316
CCC1(CC)CC(=O)c2cc(-c3nc(-c4ccc(NC(C)=O)cc4)no3)ccc2O1 [Compound 209, N-(4-(5-(2,2-diethyl-4-oxochroman-6-yl)-1,2,4-oxadiazol-3-yl)phenyl)acetamide]	< 316
Cc1cc(-c2nc(-c3ccc4c(c3)nnn4C(C)C)no2)cc(C)n1 [Compound 156, 5-(2,6-dimethyl-pyridin-4-yl)-3-(1-isopropyl-1H-benzo[d][1,2,3]triazol-5-yl)-1,2,4-oxadiazole]	< 316
N#Cc1cc(-c2nc(-c3ccc4c(c3)CC(=O)N4)no2)ccc1NCC1CC1 [Compound 210, 2-((cyclopropyl-methyl)amino)-5-(3-(2-oxoindolin-5-yl)-1,2,4-oxadiazol-5-yl)benzonitrile]	< 316
Cc1ccsc1-c1noc(-c2ccc3c(c2)nnn3CC(C)(C)O)n1 [Compound 140]	< 316
COc1ccc(-c2noc(-c3ccc4c(c3)nnn4C3CCCC3)n2)c2ccccc12 [Compound 91, 1-cyclopentyl-5-[3-(4-methoxynaphthalen-1-yl)-1,2,4-oxadiazol-5-yl]-1H-1,2,3-benzotriazole]	> 316
CCC1(CC)CC(=O)c2cc(-c3nc(-c4cncc(O)c4)no3)ccc2O1 [Compound 310, 2,2-diethyl-6-[3-(5-hydroxy-3-pyridyl)-1,2,4-oxadiazol-5-yl]chroman-4-one]	< 316
CCC1(CC)CC(=O)c2cc(-c3nc(-c4ccc(C(N)=O)cc4)no3)ccc2O1 [Compound 179, 4-(5-(2,2-diethyl-4-oxochroman-6-yl)-1,2,4-oxadiazol-3-yl)benzamide]	< 316
COc1cc(C)c(-c2noc(-c3ccc4c(c3)nnn4C(C)C)n2)c(OC)c1 [Compound 136, 5-[3-(2,4-dimethoxy-6-methylphenyl)-1,2,4-oxadiazol-5-yl]-1-(propan-2-yl)-1H-1,2,3-benzotriazole]	> 316
CC(C)CCn1nnc2cc(-c3nc(-c4ccc(C(F)(F)F)c(F)c4)no3)ccc21 [Compound 122, 5-{3-[3-fluoro-4-(trifluoromethyl)phenyl]-1,2,4-oxadiazol-5-yl}-1-(3-methyl-butyl)-1H-1,2,3-benzotriazole]	> 316
CCC1(CC)CC(=O)c2cc(-c3nc(-c4cccnc4)ns3)ccc2O1 [Compound 309, 2,2-diethyl-6-(3-(pyridin-3-yl)-1,2,4-thiadiazol-5-yl)chroman-4-one]	> 316
Clc1ccc(-c2noc(-c3ccc4c(c3)nnn4C3CCOCC3)n2)s1 [Compound 82, 5-[3-(5-chlorothiophen-2-yl)-1,2,4-oxadiazol-5-yl]-1-(oxan-4-yl)-1H-1,2,3-benzotriazole]	> 316
Brc1ccccc1-c1nc(-c2ccc3c(c2)nnn3CC2CC2)no1 [Compound 98, 5-(2-bromophenyl)-3-(1-(cyclopropylmethyl)-1H-benzo[d][1,2,3]triazol-5-yl)-1,2,4-oxadiazole]	> 316
CC(C)n1nnc2cc(-c3nc(-c4ccccn4)no3)ccc21 [Compound 241, 1-(propan-2-yl)-5-[3-(pyridin-2-yl)-1,2,4-oxadiazol-5-yl]-1H-1,2,3-benzotriazole]	> 316
CC(C)n1nnc2cc(-c3noc(C4CCCCC4)n3)ccc21 [Compound 127, 5-(5-cyclohexyl-1,2,4-oxadiazol-3-yl)-1-(propan-2-yl)-1H-1,2,3-benzotriazole]	> 316
c1ccc(-c2noc(-c3ccc4c(c3)nnn4C3CCCCC3)n2)cc1 [Compound 292, 1-cyclohexyl-5-(3-phenyl-1,2,4-oxadiazol-5-yl)-1H-1,2,3-benzotriazole]	> 316
Cc1ccccc1-c1noc(-c2ccc3nnn(C(C)C)c3c2)n1 [Compound 308, 6-[3-(2-methylphenyl)-1,2,4-oxadiazol-5-yl]-1-(propan-2-yl)-1H-1,2,3-benzotriazole]	> 316
CC(C)n1ccc2cc(-c3nc(-c4ccccc4Cl)no3)ccc21 [Compound 320, 3-(2-chlorophenyl)-5-(1-isopropyl-1H-indol-5-yl)-1,2,4-oxadiazole]	< 316
